Laboratory results from patent US20250000859A1, “USE OF GCN2 INHIBITORS IN TREATING CANCER” (Alesta Therapeutics BV, priority 2021, published 2025).
Like-named read-outs stand apart in the source and are kept apart here.

How the values were obtained:
HCT116 spheroids = test: Tumor spheroid growth, live-cell imaging (Example C); format: cell-based; conditions: ASS1-high HCT116 spheroids, 0-20 μM, up to 120 hours
Protocol: (§1) The growth of tumor spheroids was evaluated following treatment of cells with Compound 1, Compound 2. Briefly, HT29 or HCT116 cells were seeded at 5,000 cells/well in ultra-low attachment round-bottom 96-well plates, in 100 μL SILAC DMEM Flex media without phenol red, supplemented with 10% fetal bovine serum (FBS), 1 g/L glucose, 2 mM glutamine, 220 μM lysine, and 64 μM arginine. The plates were centrifuged for 10 minutes at 125×g and put in a humidified incubator at 37° C. for 3 days before the onset of the experiment to allow spheroids to form.
(§2) Three days after seeding, 0-20 μM Compound 1, 0-20 μM Compound 2, or […] vehicle control (0.1% DMSO), were added together with the Nuclear-ID Red DNA Stain (1:100,000; ENZO Life Sciences) to detect live cells. Plates were placed in live-cell imaging and analysis platform (e.g., IncuCyte ZOOM®; 15 Essenbio) set up in a humidified incubator at 37° C. and scanned every 4 hours for up to 120 hours, at 10× magnification, to determine the relative spheroid size and cell death. Experiments were performed in quadruplicate and analyzed using live-cell imaging and analysis software (e.g., IncuCyte ZOOM® 2018A software; Essenbio).

HT29 spheroids = test: as above; format: cell-based; conditions: ASS1-low HT29 spheroids, 0-20 μM, up to 120 hours
Protocol: as §1, §2

769-P (ASS1high) cells = test: Relative cell viability, Nuclear-ID Red / Annexin V staining (Example E); format: cell-based; conditions: 16 μM arginine, 4 days
Protocol: (§3) To assess the effectiveness of Compound 1 and Compound 2: A^498 (ASS1low) and 769-P (ASS1high) cells were seeded at a density of 2000 cells/well in 96-well plates in RPMI medium with 16 μM arginine, 1 g/L glucose, 2 mM L-glutamine, and 10% FCS and allowed to adhere overnight.
(§4) Cells were then treated with increasing amounts of the indicated compounds for 4 days. Afterward, cell viability was determined by staining the nuclei of the living cells with NUCLEAR-IDR Red DNA stain (Enzo Life Sciences) and the apoptotic/death cells with Annexin V CF488A (Biotium) and scanning the plates with an IncuCyte S3 instrument. Viable cells were classified as Nuclear-ID Red high and Annexin V CF488A low and relative viability was expressed as a percentage of the total number of cells/well.

A498 (ASS1low) cells = test: as above; format: cell-based; conditions: 16 μM arginine, 4 days
Protocol: as §3, §4

[1] = tested on: Renca, CT26, MC38, B16F10 tumor cells; test: In vivo tumor models, tumor volume (Example J); parameters: species or system BALB/c or C57BL/6 mice; conditions: for inhibition in tumor volume compared to control: Compound 1: 30 mg/kg p.o. BID, Compound 2: 20 mg/kg p.o. BID, endpoint day 11-20 depending on model
Protocol: Effect of GCN2 inhibition on in vivo xenograft tumor models of various ASS1 low cancer models was evaluated following treatment with compound 1, compound 2, or vehicle control. Briefly, 1,000,000 tumor cells with a total volume of 100 μl were injected into the rear flank region of 6-8 week old BALB/c or C57BL/6 female mice. The following tumor cell lines were tested: renica (renal adenocarcinoma), CT26 (colon cancer), MC 38 (colon adenocarcinoma), B16F10 (melanoma) When tumors reached a size of approximately […], mice were treated orally (PBS, 10 μl/g, i.p., twice weekly (BIW); Compound 1: 30 mg/kg, 10 μl/g, p.o., twice daily (BID); or Compound 2: 20 mg/kg, 10 μl/g, p.o., BID). Tumor volumes were measured every 3-4 days. Endpoint measurements as presented were measured at day 20 (Renca), day 14 (CT26), day 17 (MC38), and day 11 (B16F10).

HT29 cells [2] = test: EdU incorporation (Example I); format: cell-based; conditions: HT29 cells (low ASS1), arginine 6.25-100 μM
Protocol: (§5) EdU incorporation levels of cancer cell lines was evaluated following treatment with compound 1, compound 2, compound 3, or vehicle control (0.1% DMSO). Briefly, HT29 and HCT116 cells were seeded at 2,500 cells/well in 96 well plates in 100 μl SILAC DMEM flex media without phenol red, supplemented with 10% dialyzed fetal bovine serum (dFBS), 1 g/l glucose, 2 mM glutamine, 220 μM Lysine, and various concentrations of arginine (6.25 μM, 12.5 μM, 25 μM, and 100 μM). The cells were put in a humidified incubator at 37° C. for 24 hours. The next day compounds were added to the cells at a concentration of […]. At day 3, cells were incubated with 10 μM EdU for 24 hours. The next day EdU positive cells were labeled using the Click-it reaction cocktail per manufacturing protocol using Amplex UltraRed Dye. Fluorescence was measured using a microplate reader using filter sets appropriate for Amplex™ UntraRed reagent (ex 568 nm and em 585 nm).

HCT116 cells [3] = test: EdU incorporation (Example I); format: cell-based; conditions: HCT116 cells (high ASS1), arginine 6.25-100 μM
Protocol: as §5

A498 cells = test: Cell viability, ATPlite luminescence (Example H); format: cell-based; conditions: A498 cells (low ASS1)
Protocol: The viability of cancer cell lines was evaluated following treatment with compound 2. Briefly, 769P and A498 cells were seeded at 100-6,400 cells/well in 96 well plates in 100 μl SILAC DMEM flex media without phenol red, supplemented with 10% dialyzed fetal bovine serum (dFBS), 1 g/l glucose, 2 mM glutamine, 220 μM Lysine, and 64 μM arginine. The cells were put in a humidified incubator at 37° C. for 24 hours. The next day compounds were added at various concentrations. At the end of the experiment, ATPlite 1 Step™ (Perkin Elmer) solution was added to each well and shaken for 2 minutes. After incubation of 10 min in the dark, luminescence was recorded on a Envision Multimode Reader to determine cell viability.

HT29 cells [4] = test: Growth of colonies/spheroids in soft agar, 5 days (Example G); format: cell-based; conditions: HT29 cells (ASS1 low), 64 μM arginine, read-out: IC50, growth inhibition
Protocol: (§6) The growth of tumor spheroids was evaluated following treatment with Compound 2. Briefly, HT29 cells were seeded at 2,000 cells/well and HCT116 cells were seeded at 1,000 cells/well in ultra-low attachment round bottom 96-well plates in soft agar with 100 μl SILAC DMEM flex media without phenol red, supplemented with 10% Dialyzed fetal bovine serum (dFBS), 1 g/l glucose, 2 mM glutamine, 220 μM Lysine, and 64 μM arginine. Various concentrations of compound 2 (1.37 nM, 4.11 nM, 12.3 nM, 37 nM, 111 nM, 333 nM, and 1000 nM) were added. Plates were placed in a humidified incubator at 37° C. and incubated for 5 days, allowing colonies to form. At endpoint, images were taken by light microscopy (3 images per well) and analyzed using ImageJ software.

HCT116 cells [5] = test: as above; format: cell-based; conditions: Homo sapiens, HCT-116, 120 h, HCT116 cells (ASS1 high), 64 μM arginine, read-out: IC50, growth inhibition
Protocol: as §6

Row | IC50 (HT29 cells [4]) [nM] | IC50 (HT29 cells [4]; Homo sapiens, HT-29, 120 h) [nM] | IC50 (HCT116 cells [5]) [nM] | SMILES | spheroid growth (HCT116 spheroids) | spheroid growth compared to DMSO-treated spheroids (HT29 spheroids) | relative cell viability (769-P (ASS1high) cells) | relative cell viability (A498 (ASS1low) cells) | reduction in tumor volume compared to control ([1]; 30 mg/kg p.o. BID, Renca, CT26, MC38, B16F10, FIG. 9A) | inhibition in tumor volume compared to control [1] | EdU labeling (HT29 cells [2]) | EdU labeling (HCT116 cells [3]) | cell death (percent viability vs untreated cells) (A498 cells)
1 | – | – | – | COc1ncc(Cl)cc1S(=O)(=O)Nc1ccc(F)c(-c2ccc3nc(N)ncc3c2)c1F [Compound 1] | does not reduce spheroid growth | significantly reduces spheroid growth in a dose-dependent manner | did not significantly relative cell viability | significantly reduces relative cell viability in a dose-dependent manner | 60-70% | caused a significant inhibition in tumor volume compared to control | cause significantly higher levels of EdU labeling | have a smaller effect on EdU labeling | –
2 | 51.4 | 52.4 | 1330 | Nc1ncc2cc(-c3c(F)ccc(NS(=O)(=O)c4cc(Cl)ccc4Cl)c3F)ccc2n1 [Compound 2] | does not reduce spheroid growth | significantly reduces spheroid growth in a dose-dependent manner | did not significantly relative cell viability | significantly reduces relative cell viability in a dose-dependent manner | – | caused a significant inhibition in tumor volume compared to control | cause significantly higher levels of EdU labeling | have a smaller effect on EdU labeling | resulted in a significant level of cell death
3 | – | – | – | Nc1ncc(C#Cc2c(F)ccc(NS(=O)(=O)c3cc(Cl)cc(CO)c3Cl)c2F)cn1 [Compound 3] | – | – | – | – | – | – | cause significantly higher levels of EdU labeling | have a smaller effect on EdU labeling | –
